# Results published in patent US11242337B2, “Compounds useful for treating gastrointestinal tract disorders” (Ardelyx, Inc., priority 2017, dated 2022).
# Read-outs that look alike come from different tables or passages of the source.
# Key:
# [1] = molecular target: T1, NHE3 (Homo sapiens, UniProt P48764); experiment: Cell-based assay of NHE-3 activity (persistent inhibition), human; conditions: human Persistence, 60 min incubation then washout
# T1 construct: expressed in transfected cells
# T1 sequence (P48764 26-834): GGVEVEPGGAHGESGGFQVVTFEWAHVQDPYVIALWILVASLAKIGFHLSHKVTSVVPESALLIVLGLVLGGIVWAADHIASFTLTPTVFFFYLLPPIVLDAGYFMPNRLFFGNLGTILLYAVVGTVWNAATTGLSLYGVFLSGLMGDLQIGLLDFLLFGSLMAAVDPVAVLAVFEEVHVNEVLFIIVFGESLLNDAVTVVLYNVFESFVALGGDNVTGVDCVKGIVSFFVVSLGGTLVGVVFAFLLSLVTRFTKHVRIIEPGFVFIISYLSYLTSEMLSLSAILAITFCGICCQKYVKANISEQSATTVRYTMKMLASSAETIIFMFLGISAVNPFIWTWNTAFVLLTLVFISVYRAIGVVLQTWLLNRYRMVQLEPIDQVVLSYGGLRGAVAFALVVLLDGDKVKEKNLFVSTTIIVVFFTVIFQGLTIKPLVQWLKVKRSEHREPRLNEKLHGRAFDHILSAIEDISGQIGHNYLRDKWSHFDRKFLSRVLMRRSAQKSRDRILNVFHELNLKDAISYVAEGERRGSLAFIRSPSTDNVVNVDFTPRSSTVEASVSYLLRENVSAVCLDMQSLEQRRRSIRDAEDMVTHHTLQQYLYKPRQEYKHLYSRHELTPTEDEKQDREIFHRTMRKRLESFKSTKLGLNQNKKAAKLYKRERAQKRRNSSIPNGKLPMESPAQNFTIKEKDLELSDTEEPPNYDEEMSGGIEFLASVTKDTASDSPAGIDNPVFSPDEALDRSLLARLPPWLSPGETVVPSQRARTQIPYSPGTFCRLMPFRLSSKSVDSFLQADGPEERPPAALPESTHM
# T1 sequence (Q99653 2-195 partner limits assumed): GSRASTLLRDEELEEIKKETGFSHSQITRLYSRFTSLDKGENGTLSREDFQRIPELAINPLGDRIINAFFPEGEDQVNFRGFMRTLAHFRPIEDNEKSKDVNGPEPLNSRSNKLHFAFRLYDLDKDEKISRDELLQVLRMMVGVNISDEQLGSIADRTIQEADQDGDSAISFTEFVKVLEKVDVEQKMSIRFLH
# Method in brief: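 PS120 fibroblasts expressing human NHE3 with NHERF2 exposed to 0-30 μM compound for 60 min at RT, then washed out; cells acid-loaded by NH4Cl prepulse with BCECF-AM and Na+-free buffer. Na+-driven pH recovery started 10 min post-washout; initial rate of BCECF ratio change (FLIPR) taken as activity.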
# [2] = tested on: absorption of sodium from the intestinal lumen; experiment: Inhibition of intestinal sodium absorption in mice; format: in vivo; conditions: CD-1 mice, 15 mg/kg oral gavage twice daily; for Fecal fluid content (Δ from vehicle): day 3, change from vehicle group mean; for response vs control in vivo at 15 mg/kg: Mus musculus, 72 h
# Protocol: Urinary and fecal sodium excretions were measured to assess the ability of selected example compounds to inhibit the absorption of sodium from the intestinal lumen. In addition, an assessment of the absence or presence of diarrhea in response to compound treatment was made. Approximately eight-week old, male, CD-1 mice were purchased from Envigo (Livermore, Calif.), were housed 6 per cage and acclimated for at least 48 hours before study initiation. Animals were fed Harlan Teklad Global TD.160470 rodent chow (Madison, Wis.), standard laboratory rodent chow Harlan Teklad Global 2018 with the addition of 0.4% inorganic phosphorous. […] To initiate the study, mice were weighed and then individually placed in metabolic cages. Following a 3-day acclimation period to the metabolic cage, a 24-hr baseline collection of urine and feces was performed. […] Each day, measurements of body weight. 24-hour food intake, water intake, urine volume and wet fecal weight were recorded, along with any observation of diarrhea. Fecal samples were dried using a lyophilizer for at least 3 days, following which dry weight was recorded and fecal fluid content was calculated based on the difference between the wet and dry stool weights. Fecal fluid content on day 3 of compound treatment was calculated as a change from the vehicle group mean. For urine samples, the volumes were determined gravimetrically. Feces and urine were analyzed for sodium content by microwave plasma-atomic emission spectroscopy or ion chromatography, respectively. Urine samples were analyzed on an ion chromatography system (Thermo Fisher ICS-3000 or ICS-5000+) coupled with conductivity detectors. Chromatographic separation of cations was performed using an IonPac CS12A (Thermo Fisher) 2×250 mm analytical column with an isocratic elution using […] methanesulfonic acid. Concentrations were interpolated from a a standard curve (prepared in 10 mM HCl) for sodium ion based on retention time and peak area. Fecal sample analysis by Microwave Plasma Atomic Emission Spectrometry (MP-AES). Dry fecal samples were ground into a fine powder on a homogenizer and the ground samples (400-600 mg aliquots weighed) were digested with nitric acid by microwave method (Mars 6). These digested samples were diluted with 1% Nitric acid and analyzed on Agilent 4100 MP-AES. Concentrations were calculated relative to a standard curve (prepared in 1% Nitric acid) for sodium based on the signal intensity. Sodium was detected at a wavelength of 588.995 nm. Twenty-four-hour urinary sodium excretion (ma/24-hours) was calculated by multiplying urinary sodium concentration by 24-hour urine volume. Twenty-four-hour fecal sodium excretion (mg/24-hours) was calculated by multiplying fecal sodium concentration by 24-hour dry fecal weight. The urinary and fecal sodium excretion on day 3 of compound treatment were normalized to dietary sodium intake and expressed as a percentage of the vehicle mean.
# [3] = day 3, normalized to dietary sodium intake
# [4] = day 3, normalized to dietary sodium intake, read-out: Fecal Na Excretion (% of vehicle)
# [5] = day 3, normalized to dietary sodium intake, read-out: Urinary Na Excretion (% of vehicle)
Compound,% inhibition [1],Fecal fluid content (Δ from vehicle) [2],"Fecal Na Excretion (% of vehicle) [2, 3]","Urinary Na Excretion (% of vehicle) [2, 3]",pIC50 [1],"response vs control in vivo at 15 mg/kg [2, 4] [%]","response vs control in vivo at 15 mg/kg [2, 5] [%]",IC50 [1] [nM]
"3-[2-(2-[2-[(4-[[(1S,2S)-4,6-Dichloro-2-[(3R)-3-[methyl(propan-2-yl)amino]piperidin-1-yl]-2,3-dihydro-1H-inden-1-yl]oxy]benzene) sulfonamido]ethoxy]ethoxy)ethyl]-1-[4-([[2-(2-[2-[(4-[[(1S,2S)-4,6-dichloro-2-[(3R)-3-[methyl(propan-2-yl)amino]piperidin-1-yl]-2,3-dihydro-1H-inden-1-yl]oxy]benzene)sulfonamido]ethoxy]ethoxy)ethyl]carbamoyl]amino)butyl]urea; bis(trifluoroacetic acid) [Example 78]",C (>70%),A (<5),A (<150%),A (>70%),,,,
"Cc1cc(S(=O)(=O)NCCOCCOCCNC(=O)NCCCCNC(=O)NCCOCCOCCNS(=O)(=O)c2ccc(O[C@H]3c4cc(Cl)cc(C)c4C[C@@H]3N(C)C)c(C)c2)ccc1O[C@H]1c2cc(Cl)cc(C)c2C[C@@H]1N(C)C [Example 17, 3-[2-(2-[2-[(4-[[(1S,2S)-6-Chloro-2-(dimethylamino)-4-methyl-2,3-dihydro-1H-inden-1-yl]oxy]-3-methylbenzene)sulfonamido]ethoxy]ethoxy)ethyl]-1-[4-([[2-(2-[2-[(4-[[(1S,2S)-6-chloro-2-(dimethylamino)-4-methyl-2,3-dihydro-1H-inden-1-yl]oxy]-3-methylbenzene)sulfonamido]ethoxy]ethoxy)ethyl]carbamoyl]amino)butyl]urea]",C (>70%),B (5-10),,,C (NHE3 pIC50 > 7),150 to 200,50 to 70,
"CN(C)[C@H]1Cc2c(Cl)cc(Cl)cc2[C@@H]1Oc1ccc(S(=O)(=O)NCCOCCOCCNC(=O)NCCCCNC(=O)NCCOCCOCCNS(=O)(=O)c2ccc(O[C@H]3c4cc(Cl)cc(Cl)c4C[C@@H]3N(C)C)c(F)c2)cc1F [Example 23, 3-[2-(2-[2-[(4-[[(1S,2S)-4,6-Dichloro-2-(dimethylamino)-2,3-dihydro-1H-inden-1-yl]oxy]-3-fluorobenzene)sulfonamido]ethoxy]ethoxy)ethyl]-1-[4-([[2-(2-[2-[(4-[[(1S,2S)-4,6-dichloro-2-(dimethylamino)-2,3-dihydro-1H-inden-1-yl]oxy]-3-fluorobenzene)sulfonamido]ethoxy]ethoxy)ethyl]carbamoyl]amino)butyl]urea; bis(trifluoroacetic acid)]",C (>70%),B (5-10),,,C (NHE3 pIC50 > 7),150 to 200,50 to 70,
"N#Cc1cc(Cl)cc2c1C[C@H](N1CCCNCC1)[C@H]2Oc1ccc(S(=O)(=O)N[C@H]2CCN(CCOCCNC(=O)NCCCCNC(=O)NCCOCCN3CC[C@H](NS(=O)(=O)c4ccc(O[C@H]5c6cc(Cl)cc(C#N)c6C[C@@H]5N5CCCNCC5)cc4)C3)C2)cc1 [Example 126, 4-([(1S,2S)-6-Chloro-4-cyano-2-(1,4-diazepan-1-yl)-2,3-dihydro-1H-inden-1-yl]oxy)-N—[(S)-1-(20-[(S)-3-([4-([(1S,2S)-6-chloro-4-cyano-2-(1,4-diazepan-1-yl)-2,3-dihydro-1H-inden-1-yl]oxy)phenyl]sulfonamido)pyrrolidin-1-yl]-7,14-dioxo-3,18-dioxa-6,8,13,15-tetraazaicosyl)pyrrolidin-3-yl]benzenesulfonamide]",B (40-70%),,,,,,,< 100
"C[C@@H]1CN([C@H]2Cc3c(C#N)cc(Cl)cc3[C@@H]2Oc2ccc(S(=O)(=O)N[C@H]3CCN(CCOCCNC(=O)NCCCCNC(=O)NCCOCCN4CC[C@H](NS(=O)(=O)c5ccc(O[C@H]6c7cc(Cl)cc(C#N)c7C[C@@H]6N6CCN[C@H](C)C6)cc5)C4)C3)cc2)CCN1 [Example 132, 4-([(1S,2S)-6-Chloro-4-cyano-2-[(R)-3-methylpiperazin-1-yl]-2,3-dihydro-1H-inden-1-yl]oxy)-N—[(S)-1-(20-[(S)-3-([4-([(1S,2S)-6-chloro-4-cyano-2-[(R)-3-methylpiperazin-1-yl]-2,3-dihydro-1H-inden-1-yl]oxy)phenyl]sulfonamido)pyrrolidin-1-yl]-7,14-diaxo-3,18-dioxa-5,8,13,15-tetraazaicosyl)pyrrolidin-3-yl]benzenesulfonamide; bis(trifluoroacetic acid)]",C (>70%),,,,C (NHE3 pIC50 > 7),,,
"C[C@@H]1CN([C@H]2Cc3c(C#N)cc(Cl)cc3[C@@H]2Oc2ccc(S(=O)(=O)N[C@@H]3CCN(CCOCCNC(=O)NCCCCNC(=O)NCCOCCN4CC[C@@H](NS(=O)(=O)c5ccc(O[C@H]6c7cc(Cl)cc(C#N)c7C[C@@H]6N6CCN[C@H](C)C6)cc5)C4)C3)cc2)CCN1 [Example 133, 4-([(1S,2S)-6-Chloro-4-cyano-2-[(R)-3-methylpiperazin-1-yl]-2,3-dihydro-1H-inden-1-yl]oxy)-N—[(R)-1-(20-[(R)-3-([4-([(1S,2S)-6-chloro-4-cyano-2-[(R)-3-methylpiperazin-1-yl]-2,3-dihydro-1H-inden-1-yl]oxy)phenyl]sulfonamido)pyrrolidin-1-yl]-7,14-dioxo-3,18-dioxa-6,8,13,15-tetraazaicosyl)pyrrolidin-3-yl]benzenesulfonamide; bis(trifluoroacetic acid)]",C (>70%),,,,C (NHE3 pIC50 > 7),,,
"N#Cc1cc(Cl)cc2c1C[C@H](N1CCNCC1)[C@H]2Oc1ccc(S(=O)(=O)N[C@H]2CCN(C(=O)CCCNC(=O)NCCCCNC(=O)NCCCC(=O)N3CC[C@H](NS(=O)(=O)c4ccc(O[C@H]5c6cc(Cl)cc(C#N)c6C[C@@H]5N5CCNCC5)cc4)C3)C2)cc1 [Example 143, 4-([(1S,2S)-6-Chloro-4-cyano-2-(piperazin-1-yl)-2,3-dihydro-1H-inden-1-yl]oxy)-N—[(S)-1-(18-[(S)-3-([4-([(1S,2S)-6-chloro-4-cyano-2-(piperazin-1-yl)-2,3-dihydro-1H-inden-1-yl]oxy)phenyl]sulfonamido)pyrrolidin-1-yl]-6,13,18-trioxo-5,7,12,14-tetraazaoctadecanoyl)pyrrolidin-3-yl]benzenesulfonamide]",C (>70%),,,,C (NHE3 pIC50 > 7),,,
